Tested on: pERK in NCI-H358 cells
Assay: Cell-based pERK HTRF assay (pERK inhibition in H358 cells)
Details: Homo sapiens, NCI-H358, 0.5 h, pERK inhibition IC50, NCI-H358 cells, 30 min incubation; read-out: PERK in H358 cell

Structure (SMILES)	IC50 [nM]
C=CC(=O)N1C[C@H](C)N(c2nc(OC[C@@]34CCCN3C[C@H](F)C4)nc3c(F)c(-c4ccc(F)c5sc(N)nc45)c(C#N)cc23)C[C@H]1C [Compound 326]	< 100
C=CC(=O)N1C[C@H](F)[C@@H](N(C)c2nc(OC[C@@]34CCCN3C[C@H](F)C4)nc3c(F)c(-c4ccc(F)c5sc(N)c(C#N)c45)c(C(F)(F)F)cc23)C1 [Compound 327]	< 100
C=CC(=O)N1C[C@H](C)N(c2nc(N3CC(N4CC(O)C4)C3)nc3c(F)c(-c4ccc(F)c5sc(N)c(C#N)c45)c(C(F)(F)F)cc23)C[C@H]1C [Compound 328]	< 100
C=CC(=O)N1CCN(c2nc(OC[C@@]34CCCN3C[C@H](F)C4)nc3c(F)c(-c4ccc(F)c5sc(N)c(C#N)c45)c(C(F)(F)F)cc23)C[C@@H]1C [Compound 329]	< 100
C=CC(=O)N1[C@H](C)CN(c2nc(OC[C@@]34CCCN3C[C@H](F)C4)nc3c(F)c(-c4ccc(F)c5sc(N)c(C#N)c45)c(C(F)(F)F)cc23)C[C@H]1C [Compound 330]	100 to 1000
C=CC(=O)N1C[C@H](C)N(c2nc(N3CC(N4CC(OC)C4)C3)nc3c(F)c(-c4ccc(F)c5sc(N)c(C#N)c45)c(C(F)(F)F)cc23)C[C@H]1C [Compound 331]	< 100
C=CC(=O)N1C[C@H](C)N(c2nc(OC[C@@]34CCCN3C[C@H](F)C4)nc3c(F)c(-c4ccc(F)c5sc(N)c(C#N)c45)c(F)cc23)C[C@H]1C [Compound 333]	< 100
C=CC(=O)N1C[C@H](C)N(c2nc(OC[C@]34CCCN3C[C@@H](F)C4)nc3c(F)c(-c4ccc(F)c5sc(N)c(C#N)c45)c(C(F)(F)F)cc23)C[C@H]1C [Compound 334]	< 100
C=CC(=O)N1C[C@H](F)[C@@H](N(C)c2nc(OC[C@@]34CCCN3C[C@H](F)C4)nc3cc(-c4ccc(F)c5sc(N)nc45)c(C(F)(F)F)cc23)C1 [Compound 335]	< 100
C=CC(=O)N1CC[C@H](N(C)c2nc(OC[C@@]34CCCN3C[C@H](F)C4)nc3c(F)c(-c4ccc(F)c5sc(N)c(C#N)c45)c(F)cc23)C1 [Compound 336]	100 to 1000
C=CC(=O)N1CC[C@@H](N(C)c2nc(OC[C@@]34CCCN3C[C@H](F)C4)nc3c(F)c(-c4ccc(F)c5sc(N)c(C#N)c45)c(C(F)(F)F)cc23)[C@H]1CF [Compound 337]	< 100
C=CC(=O)N1C[C@H](C)N(c2nc(N3CC(N4CC5(CC5)C4)C3)nc3c(F)c(-c4ccc(F)c5sc(N)c(C#N)c45)c(C(F)(F)F)cc23)C[C@H]1C [Compound 338, 4-(2-(3-(5-azaspiro[2.3]hexan-5-yl)azetidin-1-yl)-4-((2S,5R)-4-acryloyl-2,5-dimethylpiperazin-1-yl)-8-fluoro-6-(trifluoromethyl)quinazolin-7-yl)-2-amino-7-fluorobenzo[b]thiophene-3-carbonitrile]	< 100
C=CC(=O)N1CC[C@@H]2[C@H]1CN2c1nc(OC[C@@]23CCCN2C[C@H](F)C3)nc2c(F)c(-c3ccc(F)c4sc(N)c(C#N)c34)c(C(F)(F)F)cc12 [Compound 339]	< 100
C=CC(=O)N1CC[C@@H](N(C)c2nc(N3CC(N4CC5(CC5)C4)C3)nc3c(F)c(-c4ccc(F)c5sc(N)c(C#N)c45)c(C(F)(F)F)cc23)C1 [Compound 340]	< 100
C=CC(=O)N1C[C@H](C)N(c2nc(OC[C@@]34CCCN3C[C@H](OC)C4)nc3c(F)c(-c4ccc(F)c5sc(N)c(C#N)c45)c(C(F)(F)F)cc23)C[C@H]1C [Compound 341]	< 100
C=CC(=O)N1CC[C@@H](N(C)c2nc(OC[C@@]34CCCN3C[C@H](F)C4)nc3c(F)c(-c4ccc(F)c5sc(N)c(C#N)c45)c(Cl)cc23)C1 [Compound 342]	< 100
C=CC(=O)N1CC[C@@H](N(C)c2nc(OC[C@@]34CCCN3C[C@H](F)C4)nc3c(F)c(-c4ccc(F)c5sc(N)c(C#N)c45)c(F)cc23)C1 [Compound 343]	< 100
C=CC(=O)N1CCN(c2nc(OC[C@@]34CCCN3C[C@H](F)C4)nc3c(F)c(-c4ccc(F)c5sc(N)c(C#N)c45)c(C(F)(F)F)cc23)CC1 [Compound 345]	< 100
C=CC(=O)N1C[C@H](C)N(c2nc(OCC34CCCN3CCC4)nc3c(F)c(-c4ccc(F)c5sc(N)c(C#N)c45)c(C(F)(F)F)cc23)C[C@H]1C [Compound 346]	< 100
C=CC(=O)N1CCN(c2nc(OC[C@@]34CCCN3C[C@H](F)C4)nc3c(F)c(-c4ccc(F)c5sc(N)c(C#N)c45)c(C(F)(F)F)cc23)[C@@H](C)C1 [Compound 347]	< 100
C=CC(=O)N1CC[C@@H](N(CC)c2nc(OC[C@@]34CCCN3C[C@H](F)C4)nc3c(F)c(-c4ccc(F)c5sc(N)c(C#N)c45)c(C(F)(F)F)cc23)C1 [Compound 348, 4-(4-(((R)-1-acryloylpyrrolidin-3-yl)(ethyl)amino)-8-fluoro-2-(((2R,7aS)-2-fluorotetrahydro-1H-pyrrolizin-7a(5H)-yl)methoxy)-6-(trifluoromethyl)quinazolin-7-yl)-2-amino-7-fluorobenzo[b]thiophene-3-carbonitrile]	< 100

Structure (SMILES)	IC50 [nM]
C=CC(=O)N1C[C@H](C)N(c2nc(OC[C@@]34CCCN3C[C@H](F)C4)nc3c(F)c(-c4ccc(F)c5sc(N)c(C#N)c45)c(C(F)(F)F)cc23)C[C@@H]1C [Compound 349]	< 100
C=CC(=O)N1C[C@@H](F)[C@@H](N(C)c2nc(OC[C@@H]3C[C@@H](OC)CN3C)nc3cc(-c4ccc(F)c5sc(N)nc45)c(C(F)(F)F)cc23)C1 [Compound 350]	< 100
C=CC(=O)N1C[C@@H](F)[C@@H](N(C)c2nc(OC[C@@H]3CC4(CC4)CN3C)nc3cc(-c4ccc(F)c5sc(N)nc45)c(C(F)(F)F)cc23)C1 [Compound 351]	< 100
C=CC(=O)N1CC[C@@H](N(CC)c2nc(OC[C@@]34CCCN3C[C@H](F)C4)nc3cc(-c4ccc(F)c5sc(N)c(C#N)c45)c(C(F)(F)F)cc23)C1 [Compound 352]	< 100
C=CC(=O)N1C[C@@H](F)[C@@H](N(C)c2nc(OC[C@@]34CCCN3C[C@H](F)C4)nc3c(F)c(-c4ccc(F)c5sc(N)nc45)ccc23)C1 [Compound 353]	< 100
C=CC(=O)N1CC[C@@H](N(C)c2nc(OC[C@@]34CCCN3C[C@H](F)C4)nc3cc(-c4ccc(F)c5sc(N)c(C#N)c45)c(C(F)(F)F)cc23)[C@H]1C [Compound 354, 4-(4-(((2R,3R)-1-acryloyl-2-methylpyrrolidin-3-yl)(methyl)amino)-2-(((2R,7aS)-2-fluorotetrahydro-1H-pyrrolizin-7a(5H)-yl)methoxy)-6-(trifluoromethyl)quinazolin-7-yl)-2-amino-7-fluorobenzo[b]thiophene-3-carbonitrile]	< 100
C=CC(=O)N1C[C@@H](F)[C@@H](N(C)c2nc(OC[C@@H]3C[C@@H](F)CN3C)nc3cc(-c4ccc(F)c5sc(N)nc45)c(C(F)(F)F)cc23)C1 [Compound 355]	< 100
C=CC(=O)N1C[C@@H](F)[C@@H](N(C)c2nc(OC[C@@H]3C[C@@H](F)CN3C)nc3cc(-c4ccc(F)c5sc(N)c(C#N)c45)c(C(F)(F)F)cc23)C1 [Compound 356]	< 100
C=CC(=O)N1C[C@@H](F)[C@@H](N(C)c2nc(OC[C@@H]3CC4(CC4)CN3C)nc3cc(-c4ccc(F)c5sc(N)c(C#N)c45)c(C(F)(F)F)cc23)C1 [Compound 357]	< 100
C=CC(=O)N1CC[C@@H](N(C)c2nc(OC[C@@]34CCCN3C[C@H](F)C4)nc3c(F)c(-c4ccc(F)c5sc(N)c(C#N)c45)ccc23)[C@H]1C [Compound 358, 4-(4-(((2R,3R)-1-acryloyl-2-methylpyrrolidin-3-yl)(methyl)amino)-8-fluoro-2-(((2R,7aS)-2-fluorotetrahydro-1H-pyrrolizin-7a(5H)-yl)methoxy)quinazolin-7-yl)-2-amino-7-fluorobenzo[b]thiophene-3-carbonitrile]	< 100
C=CC(=O)N1C[C@@H](F)[C@@H](N(C)c2nc(OC[C@@]34CCCN3C[C@H](F)C4)nc3c(F)c(-c4ccc(F)c5sc(N)c(C#N)c45)ccc23)C1 [Compound 359]	< 100
C=CC(=O)N1C[C@@H](F)[C@@H](N(C)c2nc(OC[C@@]34CCCN3C[C@H](F)C4)nc3c(F)c(-c4ccc(F)c5sc(N)nc45)c(C#N)cc23)C1 [Compound 360]	100 to 1000
C=CC(=O)N1C[C@@H](F)[C@@H](N(C)c2nc(OC[C@@H]3C[C@@H](OC)CN3C)nc3cc(-c4ccc(F)c5sc(N)c(C#N)c45)c(C(F)(F)F)cc23)C1 [Compound 361]	< 100
C=CC(=O)N1C[C@@H](F)[C@@H](N(CC)c2nc(OC[C@@]34CCCN3C[C@H](F)C4)nc3c(F)c(-c4ccc(F)c5sc(N)c(C#N)c45)c(C(F)(F)F)cc23)C1 [Compound 362]	< 100
C=CC(=O)N1C[C@H](C)N(c2nc(OC[C@@H]3CCCN3C)nc3c(F)c(-c4ccc(F)c5sc(N)c(C#N)c45)c(C(F)(F)F)cc23)C[C@H]1C [Compound 363, 4-(4-((2S,5R)-4-acryloyl-2,5-dimethylpiperazin-1-yl)-8-fluoro-2-(((S)-1-methylpyrrolidin-2-yl)methoxy)-6-(trifluoromethyl)quinazolin-7-yl)-2-amino-7-fluorobenzo[b]thiophene-3-carbonitrile]	< 100
C=CC(=O)N1C[C@@H](F)[C@@H](N(C)c2nc(OC[C@@]34CCCN3C[C@H](F)C4)nc3c(F)c(-c4ccc(F)c5sc(N)c(C#N)c45)c(Cl)cc23)C1 [Compound 365]	< 100
C=CC(=O)N1C[C@H](C)N(c2nc(OCC34CCCN3CCC4)nc3c(F)c(-c4ccc(F)c5sc(N)c(C#N)c45)c(Cl)cc23)C[C@H]1C [Compound 366]	< 100
C=CC(=O)N1C[C@H](C)N(c2nc(OC[C@@]34CCCN3C[C@H](OC)C4)nc3c(F)c(-c4ccc(F)c5sc(N)c(C#N)c45)c(Cl)cc23)C[C@H]1C [Compound 367]	< 100
C=CC(=O)N1C[C@@H](F)[C@@H](N(CC)c2nc(OC[C@@]34CCCN3C[C@H](F)C4)nc3c(F)c(-c4ccc(F)c5sc(N)c(C#N)c45)c(Cl)cc23)C1 [Compound 368]	< 100
C=CC(=O)N1C[C@@H](F)[C@@H](N(C)c2nc(OCC34CCCN3CCC4)nc3cc(-c4ccc(F)c5sc(N)c(C#N)c45)c(C(F)(F)F)cc23)C1 [Compound 369]	< 100
C=CC(=O)N1C[C@@H](F)[C@@H](N(CC)c2nc(OC[C@@]34CCCN3C[C@H](F)C4)nc3cc(-c4ccc(F)c5sc(N)c(C#N)c45)c(Cl)cc23)C1 [Compound 370]	< 100

Reference: patent US12528818B2, “Compositions and methods for inhibition of RAS” (Leidos Biomedical Research, Inc., priority 2021, dated 2026)
